Assay results published in patent US11311609B2, “Regulating chimeric antigen receptors” (DANA-FARBER CANCER INSTITUTE, INC., priority 2017, dated 2022).

Experiments:
CD19-CAR-dTAG = target: T1, CD19-CAR-dTAG (Homo sapiens, UniProt P62942+Q96SW2, F37V/H95N/M50V/V99I); assay: Immunoblot of CD19-CAR-dTAG degradation in Jurkat T-cells; assay type: cell-based
T1 construct: HA; expressed in transfected cells; host or cells: Jurkat T-cells, lentiviral transduction, blasticidin selection
Description: FIG. 14A and FIG. 14B are immunoblots of cells treated with heterobifunctional compounds described in the present invention.
FIG. 15A and FIG. 15B are immunoblots of cells treated with bi-functional molecules described in the present invention.
FIG. 16 is an immunoblot of cells treated with heterobifunctional compounds described in the present invention.
At 4 and 12 hours, the dFKBP7 was washed out of the Jurkat cells. At each indicated timepoint, Jurkat cells were harvest to monitor CD19-CAR-dTAG expression levels via immunoblot analysis. FIG. 17B is the resulting immunoblot from the experimental design in FIG. 17A.
Jurkat T-cells were transduced with lentivirus expressing CD19-CAR-dTAG. Cells were selected with blasticidin and expanded.
Jurkat T-cells were engineered to express CD19-CAR-dTAG. Cells were treated with the indicated dose of dFKBP7 or dFKBP13 for 4 hours before lysates were prepared for western immunoblot analysis.
Jurkat T-cells were engineered to express CD19-CAR-dTAG. Cells were treated with 250 nM dFKBP7 or dFKBP13 for the indicated time before lysates were prepared for immunoblot analysis.
At 4 and 12 hours, the dFKBP7 was washed out of the Jurkat cells. At each indicated timepoint, Jurkat cells were harvest to monitor CD19-CAR-dTAG expression levels via immunoblot analysis.

[1] = tested on: CD19 positive tumor cells (Daudi, Raji); assay: Co-culture depletion of CD19 positive tumor cells by SMART-CAR expressing Jurkat T-cells, flow cytometry with CD19-FITC antibody; assay type: cell-based
Description: FIG. 28 is a schematic depicting the experimental setup used in FIG. 18 to evaluate the ability of SMART-CAR expressing Jurkat cells to deplete CD19-positive tumor cells. SMART-CAR expressing Jurkat cells are incubated with CD19-positive target tumor cells at the indicated ratio for a given amount of time (Example 25). CD19-positive target tumor cell depletion can be monitored by measuring levels of CD19.
FIG. 30 is a schematic depicting the experimental setup used in FIG. 21 and described in Example 26 to illustrate the chemical control of SMART-CAR expression and subsequent activity against CD19 positive tumor cells using dFKBP7. SMART-CAR expressing Jurkat cells were pretreated with dFKBP7 at 250 nM for 4 hours to allow for maximal degradation of SMART-CAR. The Jurkat cells were then harvested and washed three times to remove dFKBP7. Jurkat cells were split into two experimental arms. The first arm (top, blue) was treated with DMSO control and the second arm (bottom, green) was retreated with 250 nM dFKBP7. The two experimental arms were then mixed at a 1:1 ratio with CD19 positive tumor cells and CD19-positive tumor cells monitored by flow cytometry.
FIG. 33 is a line plot tracking CD19 positive tumor cells during alternating exposure and removal of 250 nM of dFKBP7 in a 30 hour time course. […]
FIG. 28 illustrates the experimental design to evaluate the functionality of SMART-CAR expressing Jurkat T-cells to deplete CD19 positive target tumor cells. […] Co-cultured cells were pelleted, stained with a CD19-FITC antibody, fixed, and CD19 levels measured via flow cytometry.
SMART-CAR expressing Jurkat cells were pretreated with dFKBP7 at 250 nM for 4 hours to allow for maximal degradation of SMART-CAR. […] The two experimental arms were then mixed at a 1:1 ratio with CD19 positive tumor cells and CD19-positive tumor cells monitored by flow cytometry. […]
FIG. 32 is a graph that exemplifies the linear relationship between number of SMART-CAR expressing T-cells and functional killing of CD19 positive target tumor cells. […] CD19 positive tumor cells were then quantified using flow cytometry with a directly conjugated CD19-FITC antibody. […]

T1 sequence (P62942 with tags, fused parts or gaps F37V/M50V/H95N/V99I limits assumed): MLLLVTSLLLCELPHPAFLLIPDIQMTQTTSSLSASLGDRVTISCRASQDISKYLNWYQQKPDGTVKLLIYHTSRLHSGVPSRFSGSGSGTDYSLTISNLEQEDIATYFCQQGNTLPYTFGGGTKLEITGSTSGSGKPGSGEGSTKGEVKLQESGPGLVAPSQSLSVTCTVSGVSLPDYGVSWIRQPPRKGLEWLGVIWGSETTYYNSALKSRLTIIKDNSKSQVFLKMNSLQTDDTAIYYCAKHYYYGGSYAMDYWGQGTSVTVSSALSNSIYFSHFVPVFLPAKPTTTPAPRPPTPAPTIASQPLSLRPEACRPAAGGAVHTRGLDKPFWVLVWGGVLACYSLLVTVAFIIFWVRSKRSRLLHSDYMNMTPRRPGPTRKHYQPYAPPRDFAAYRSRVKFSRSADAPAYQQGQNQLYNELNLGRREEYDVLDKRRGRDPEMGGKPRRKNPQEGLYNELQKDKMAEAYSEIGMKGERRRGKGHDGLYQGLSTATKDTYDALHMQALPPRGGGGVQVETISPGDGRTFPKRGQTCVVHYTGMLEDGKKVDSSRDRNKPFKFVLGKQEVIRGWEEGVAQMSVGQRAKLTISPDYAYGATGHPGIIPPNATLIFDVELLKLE
T1 sequence (Q96SW2 whole entry): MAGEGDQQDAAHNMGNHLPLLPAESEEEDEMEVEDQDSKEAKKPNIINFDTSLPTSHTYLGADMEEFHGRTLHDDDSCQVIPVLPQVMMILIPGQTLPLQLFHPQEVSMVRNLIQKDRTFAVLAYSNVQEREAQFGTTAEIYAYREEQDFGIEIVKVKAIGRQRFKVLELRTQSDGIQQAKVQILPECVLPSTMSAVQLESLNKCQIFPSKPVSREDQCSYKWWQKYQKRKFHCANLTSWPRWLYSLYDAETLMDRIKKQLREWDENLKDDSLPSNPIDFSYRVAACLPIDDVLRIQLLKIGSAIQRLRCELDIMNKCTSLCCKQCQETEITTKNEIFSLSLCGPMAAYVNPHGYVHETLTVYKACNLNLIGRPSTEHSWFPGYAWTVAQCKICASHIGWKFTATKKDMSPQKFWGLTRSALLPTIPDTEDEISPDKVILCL
T1 sequence (Q16531 whole entry partner): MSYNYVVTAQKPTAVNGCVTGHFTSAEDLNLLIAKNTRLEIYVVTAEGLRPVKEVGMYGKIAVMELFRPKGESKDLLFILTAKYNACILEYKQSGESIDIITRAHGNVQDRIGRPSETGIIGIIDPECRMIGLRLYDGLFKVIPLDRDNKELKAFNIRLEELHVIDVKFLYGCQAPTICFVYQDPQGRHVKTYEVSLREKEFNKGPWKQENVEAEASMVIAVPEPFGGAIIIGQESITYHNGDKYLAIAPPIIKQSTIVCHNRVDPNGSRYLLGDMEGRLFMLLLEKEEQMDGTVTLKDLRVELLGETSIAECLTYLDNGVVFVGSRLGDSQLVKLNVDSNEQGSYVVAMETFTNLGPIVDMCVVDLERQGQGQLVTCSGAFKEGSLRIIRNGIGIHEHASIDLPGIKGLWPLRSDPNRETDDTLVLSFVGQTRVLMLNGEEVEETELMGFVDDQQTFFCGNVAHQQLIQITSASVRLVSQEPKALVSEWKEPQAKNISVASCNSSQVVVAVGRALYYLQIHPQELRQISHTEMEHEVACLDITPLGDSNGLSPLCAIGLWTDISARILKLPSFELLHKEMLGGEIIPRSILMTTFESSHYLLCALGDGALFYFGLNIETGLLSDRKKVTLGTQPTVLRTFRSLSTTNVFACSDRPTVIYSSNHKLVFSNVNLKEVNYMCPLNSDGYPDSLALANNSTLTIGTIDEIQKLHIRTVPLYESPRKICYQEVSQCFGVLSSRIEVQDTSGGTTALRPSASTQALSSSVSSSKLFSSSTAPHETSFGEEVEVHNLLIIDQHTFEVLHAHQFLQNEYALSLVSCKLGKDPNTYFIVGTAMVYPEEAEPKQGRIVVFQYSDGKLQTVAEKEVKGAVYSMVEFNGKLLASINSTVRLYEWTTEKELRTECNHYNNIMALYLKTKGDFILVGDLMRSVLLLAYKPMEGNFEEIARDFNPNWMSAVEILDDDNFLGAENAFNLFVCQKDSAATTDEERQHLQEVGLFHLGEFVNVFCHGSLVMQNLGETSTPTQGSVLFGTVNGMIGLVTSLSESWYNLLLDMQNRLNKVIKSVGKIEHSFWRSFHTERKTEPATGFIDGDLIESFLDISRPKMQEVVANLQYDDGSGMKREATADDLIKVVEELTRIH

SMILES: CC[C@H](C(=O)N1CCCC[C@H]1C(=O)O[C@H](CCc1ccc(OC)c(OC)c1)c1cccc(OCC(=O)NCCCOCCOCCOCCCNC(=O)COc2cccc3c2C(=O)N(C2CCC(=O)NC2=O)C3=O)c1)c1cc(OC)c(OC)c(OC)c1 (some centres unmarked) [dFKBP7]
- Re-expression of CD19-CAR-dTAG protein after washout (CD19-CAR-dTAG; Jurkat T-cells, 250 nM for 4 hours, then washouts): recovered
- Degradation of CD19-CAR-dTAG, time dependence (CD19-CAR-dTAG; Jurkat T-cells, 250 nM, indicated time): time-dependent degradation of CD19-CAR-dTAG
- Degradation of CD19-CAR-dTAG, dose dependence (CD19-CAR-dTAG; Jurkat T-cells, indicated dose, 4 hours): dose-dependent degradation of CD19-CAR-dTAG
- Rheostat chemical control of CD19-CAR-dTAG expression (CD19-CAR-dTAG; Jurkat cells, 250 nM at 0 and 8 hours, washed out at 4 and 12 hours): exquisite chemical control of CD19-CAR-dTAG protein levels allowing for modulation within hours
- CD19 positive target tumor cell depletion in the presence of dFKBP7 ([1]; 1:3 ratio, 250 nM, 4 HR to 24 HR): halted
- CD19 positive target tumor cell depletion after removal of dFKBP7 ([1]; 1:3 ratio, 24 HR-30 HR): rapid target tumor cell depletion
- Daudi cell depletion, dose response ([1]; CD19 positive Daudi cells, 1:3 ratio, 24 hours, indicated concentrations): Daudi cell depletion was rescued
- CD19 positive tumor cells ([1]; Daudi and Raji, 1:1 ratio, retreatment with 250 nM dFKBP7): not affected
